Assay results published in patent US10584127B2, “3,3-difluoropiperidine carbamate heterocyclic compounds as NR2B NMDA receptor antagonists” (Rugen Holdings (Cayman) Limited, priority 2015, dated 2020).

Tests used:
[1] = test system: NMDA receptor (all subtypes), native rat brain receptors; experiment: [3H] MK-801 radioligand binding assay, rat brain membranes; details: 2 nM [3H] MK-801, rat brain membranes
Description: This example describes NMDA receptor binding assays using two different radioligands, [^3H] […] An established binding assay using the non-selective NMDA receptor ligand [^3H] […] The binding assay method using the NR2B selective receptor ligand [^3H] […] This assay serves as a selective measure of NR2B receptor binding activity in native rat brain receptors. Briefly, the brains of Male Wistar rats were homogenized (Polytron) before centrifugation at 40,000×g for 15 minutes at 4° C. After 2 washes, the final pellet was homogenized and stored at −80° C. The protein concentration was determined by Bradford assay.
Test compounds were solubilized at 10 mM in DMSO. Then the dilutions were performed with a constant solvent concentration (1% DMSO) in the assay.
After incubation for 4.5 h at room temperature, the assays were filtered on GF/B filters pretreated with 0.3% (v/v) PEI with a Brandel system for [^3H] […] The experiment was performed in duplicate (n=2).

CYP2D6 = CYP2D6 (Homo sapiens (Human), UniProt P10635); experiment: CYP P450 enzyme inhibition, pooled human liver microsome; type: in vitro ADME; details: HLM, dextromethorphan 5 μM
CYP2D6, sequence (P10635 whole entry): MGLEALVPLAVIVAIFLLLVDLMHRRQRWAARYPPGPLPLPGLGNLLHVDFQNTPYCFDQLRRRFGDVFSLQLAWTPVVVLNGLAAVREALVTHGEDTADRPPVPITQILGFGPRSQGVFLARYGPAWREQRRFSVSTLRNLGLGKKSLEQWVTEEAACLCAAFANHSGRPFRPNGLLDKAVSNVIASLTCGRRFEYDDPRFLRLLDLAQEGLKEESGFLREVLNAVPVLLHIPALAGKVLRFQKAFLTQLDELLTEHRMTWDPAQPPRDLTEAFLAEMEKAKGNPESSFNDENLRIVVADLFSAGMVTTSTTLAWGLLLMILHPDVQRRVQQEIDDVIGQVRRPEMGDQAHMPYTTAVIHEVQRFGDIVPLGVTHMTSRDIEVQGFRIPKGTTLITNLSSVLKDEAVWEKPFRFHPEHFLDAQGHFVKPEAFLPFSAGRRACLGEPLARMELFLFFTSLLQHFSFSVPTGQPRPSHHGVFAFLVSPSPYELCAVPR
Description: Those CYP isoforms and their corresponding probe substrates are as follows: CYP1A2 (phenacetin, 30 μM), CYP2C9 (tolutamide, 100 μM), CYP2C19 (S-mephenytoin, 40 μM), CYP2D6 (dextromethorphan, 5 μM) and CYP3A4 (midazolam, 1 μM). All probe substrates were used at concentrations near or below their Kms. For experiment, a reaction mixture of test compound at 10 μM or in serial dilution, CYP probe substrate described above and 0.2 mg/mL pooled HLM in phosphate buffer, pH 7.4 in a final volume of 200 μL was pre-incubated at 37° C. for 10 minutes in triplicate. The reaction was initiated by addition of NADPH at final concentration of 1 mM. The reaction was terminated after 10 minutes (CYP1A2, CYP2D6 and CYP3A4) or 30 minutes (CYP2C9 and CYP2C19) by addition of 100 μL ice-cold acetonitrile with internal standard (IS). The samples were then centrifuged at 13,000 rpm and the supernatants were injected to LC-MS/MS (Agilent Technologies) to quantify the concentration of the specific metabolites of the probe substrates formed by individual CYP450 isoforms. The inhibition ratio is calculated as: (Mt−M0)/Mwater×100% in which Mt and M0 represent the concentrations of the specific probe substrate metabolite, which was formed by individual CYP450 isoform, at the beginning and end of the reaction in the presence of test compound; while Mwater represents the concentration of the specific metabolite at the end of the reaction in the absence of test compound. Test compound concentration-dependent response data experiments performed in triplicate.

cloned human NR1/NR2A = cloned human NR1/NR2A (Homo sapiens (Human), UniProt Q12879); experiment: NR2A antagonist activity, Fluo-4 calcium influx in HEK293 cells; type: cell-based; details: glutamate 100 μM, glycine 50 μM
cloned human NR1/NR2A, sequence (Q12879 23-1464, other chains not shown): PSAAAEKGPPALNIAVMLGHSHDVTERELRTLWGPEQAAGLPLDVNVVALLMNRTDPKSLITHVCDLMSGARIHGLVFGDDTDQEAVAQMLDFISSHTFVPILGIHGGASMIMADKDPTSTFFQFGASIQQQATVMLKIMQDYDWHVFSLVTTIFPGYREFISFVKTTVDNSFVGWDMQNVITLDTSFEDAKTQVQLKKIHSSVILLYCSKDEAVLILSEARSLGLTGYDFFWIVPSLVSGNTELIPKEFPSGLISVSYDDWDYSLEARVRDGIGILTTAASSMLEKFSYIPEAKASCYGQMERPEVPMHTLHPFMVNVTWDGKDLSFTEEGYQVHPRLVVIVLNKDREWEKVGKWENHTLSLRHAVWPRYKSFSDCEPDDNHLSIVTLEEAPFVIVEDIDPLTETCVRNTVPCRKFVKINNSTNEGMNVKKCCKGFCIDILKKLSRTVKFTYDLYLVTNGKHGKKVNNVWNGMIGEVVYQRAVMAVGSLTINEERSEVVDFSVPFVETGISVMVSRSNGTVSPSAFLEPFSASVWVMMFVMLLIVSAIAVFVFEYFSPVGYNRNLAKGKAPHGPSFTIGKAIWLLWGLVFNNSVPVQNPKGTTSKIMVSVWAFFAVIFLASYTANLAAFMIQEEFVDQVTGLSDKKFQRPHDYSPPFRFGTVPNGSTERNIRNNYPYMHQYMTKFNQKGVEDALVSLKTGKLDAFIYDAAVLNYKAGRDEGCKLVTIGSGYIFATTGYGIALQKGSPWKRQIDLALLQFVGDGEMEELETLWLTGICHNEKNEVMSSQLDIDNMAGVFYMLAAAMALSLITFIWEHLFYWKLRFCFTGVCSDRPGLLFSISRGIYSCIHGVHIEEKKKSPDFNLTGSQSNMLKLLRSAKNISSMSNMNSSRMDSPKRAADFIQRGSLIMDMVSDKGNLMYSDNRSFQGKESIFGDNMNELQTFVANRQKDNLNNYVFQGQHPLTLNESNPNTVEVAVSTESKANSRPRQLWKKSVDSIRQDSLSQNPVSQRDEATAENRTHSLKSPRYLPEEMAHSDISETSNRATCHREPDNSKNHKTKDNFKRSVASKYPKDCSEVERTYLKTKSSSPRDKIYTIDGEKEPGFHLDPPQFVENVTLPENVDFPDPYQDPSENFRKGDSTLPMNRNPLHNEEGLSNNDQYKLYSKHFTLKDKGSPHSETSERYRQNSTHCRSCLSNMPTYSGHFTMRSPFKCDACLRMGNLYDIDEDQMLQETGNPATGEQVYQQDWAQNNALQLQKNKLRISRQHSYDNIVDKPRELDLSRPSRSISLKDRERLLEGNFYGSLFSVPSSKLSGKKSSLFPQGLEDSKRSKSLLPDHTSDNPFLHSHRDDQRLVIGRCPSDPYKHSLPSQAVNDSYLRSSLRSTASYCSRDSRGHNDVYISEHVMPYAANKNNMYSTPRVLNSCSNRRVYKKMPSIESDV
Description: Activation of the NR2A or NR2B subtype of NMDA receptor with glutamate as an agonist and glycine co-agonist on these cells results in calcium influx, which can be monitored with fluorescent indicator Fluo-4.
For experiments, the cells were seeded onto poly-D-lysine-coated 96-well black plates with clear bottom (Corning) at a density of ^˜50,000 cells/well. After overnight culture, the growth medium was removed from the wells and the cells were incubated at 37° C. for 60 min in Hanks buffer containing 4 μM fluo-4-AM (Invitrogen) and 0.1% bovine serum albumin (BSA). After dye-loading, the cells were washed three times with Hanks buffer and incubated for 10 min at room temperature with various concentrations of test compounds prepared in Hanks buffer with 0.1% BSA. The cell plates were placed onto FDSS μCell fluorescence reader (Hamamatsu). After 20 sec reading of background fluorescence, agonist glutamate at final 100 μM and co-agonist glycine at final 50 μM were added to the cells to activate the receptor, and the resulting fluorescence changes were recorded and quantified. Based on the changes in fluorescence intensity, the pharmacological effect of test compounds were analyzed and the IC50 values derived from a non-linear least squares fitting of the concentration-dependent response to a standard logistic equation using Prism (Graphpad, Inc): Amplitude=Max Amplitude/(1+(IC50/[antagonist])^n).

[2] = test system: electroconvulsive threshold (tonic convulsions); experiment: Electroconvulsive Threshold Test (ECT); type: in vivo, rats; details: rats
Description: Rats were administered ECS (rectangular current: 0.6 ms pulse width, 1.5 s duration, 200 Hz) via earclip electrodes connected to a constant current shock generator (Ugo Basile: type 7801). Test compounds were administered by oral gavage (p.o.) 1 hour before the test at a dose volume of 5 mL/kg.
Treatment groups of 20 rats were exposed to ECS as follows: The first animal was exposed to 30 mA of ECS. […] (increases of 5 mA) until the first tonic convulsion was observed. Once the first tonic convulsion was observed, the intensity of ECS was decreased by 2 mA for the next animal and then decreased or increased by 2 mA from animal to animal depending on whether the previous animal convulsed or not. If the first animal did convulse (tonic convulsions) within 5 seconds, animal n°2 is exposed to 25 mA, etc . . . (decreases of 5 mA) until the absence of tonic convulsions was observed. At this point, the intensity of ECS was increased by 2 mA for the next animal and then decreased or increased by 2 mA from animal to animal depending on whether the previous animal convulsed or not. The minimum current intensity applied is 5 mA and the maximum 95 mA. The first 5 animals serve to approach threshold current and were not included in the analysis. The results are presented as the mean current intensity administered to the final 15 animals of a group. The test was performed blind. A positive percent change indicates an anticonvulsant effect. A negative percent change indicates a proconvulsant effect. The test substance was evaluated at 4 doses, typically using 0.5% dimethylsulfoxide, 4% hydroxypropyl-b-cyclodextrin water as a vehicle, and administered p.o. 60 minutes before ECS, and compared with a vehicle control group. Diazepam (16 mg/kg p.o.), administered under the same experimental conditions, was used as reference substance. The experiment included 6 groups. Data with the test substance was analyzed by comparing treated groups with vehicle control using one-way ANOVA followed by Dunnett's t tests.

[3] = test system: pentylenetetrazole-induced convulsions; experiment: Pentylenetetrazole (PTZ) Seizure Test; type: in vivo, rats; details: 10 mg/kg p.o., mesylate salt, PTZ 100 mg/kg s.c.
Description: Rats, placed in individual macrolon cages (25×19×13 cm), were injected with pentylenetetrazole (PTZ) (100 mg/kg s.c.). The occurrence and latency of clonic and tonic convulsions and death were noted over a 30 minute period. 15 rats were studied per group. The test was performed blind.
(§1) Test compound E1-8.2 was administered as the free base.
Compounds were evaluated typically using 0.5% dimethylsulfoxide, 4% hydroxypropyl-b-cyclodextrin water as a vehicle at 1 or more doses (e.g., 1, 3 and 10 mg/kg), administered p.o. 30 minutes before PTZ, and compared with a vehicle control group. Diazepam (16 mg/kg p.o.), administered 60 minutes before PTZ, was used as reference substance. The experiment was performed over 2 separate sub-experiments with N=7 to 8 animals per group and per sub-experiment. Quantitative data (latencies) with the test substance was analyzed by comparing treated groups with vehicle control using Kruskal-Wallis test followed by Mann-Whitney U test. Quantitative data with the reference substance was analyzed using Mann-Whitney U test. Quantal data (frequencies) was analyzed by comparing treated groups with vehicle control using Fisher's Exact Probability tests (*=p<0.05; **=p<0.01; ***=p<0.001).

[4] = test system: immobility in forced swim test; experiment: Forced Swim Test (FST) in mice; type: in vivo
Source text: (§2) The forced swim test (FST) also known at the behavioural despair test was used to evaluate antidepressant activity (Porsolt et al., 1977 Arch. Int. Pharmacodyn. 229: 327-336, Porsolt et al., 1977, Eur. J. Pharmacol. 47:379-391). Mice or rats that are forced to swim in a situation from which they cannot escape, rapidly become immobile. Drugs with antidepressant activity, such as imipramine, reduce the amount of time spent in the immobile state. Therefore, the amount of immobility time during a test conducted after drug administration represents a useful indicator of antidepressant activity (Lucki et al 2001 Psychopharmacology 155:315-322; Porsolt et al., 1977, Nature 266:730-732).
as §1
Testing for antidepressant activity was conducted in rats or mice according to the general procedures below.
Mice were evaluated in a single swimming test session of 6 minutes. Mice were placed in a transparent plastic cylinder 24 cm high with a diameter of 13 cm containing 10 cm of water with ambient temperature control generally from 22±2° C. Mice were placed in the water for 6 minutes and the duration of immobility during the last 4 minutes was measured.
Animals were observed by a blinded observer. […] The amount of time each animal spent in the immobile state (and the latency to the first bout of immobility) was recorded and used for statistical analysis of compound effect. Group differences were evaluated by student's t-test (reference substance) or one-way ANOVA followed by post-hoc Dunnett's test (test substances). […]
Male mice (strain NLMN) weighing 25-35 g were used for testing. […] The mice were videotaped for 6 minutes, and the last 4 minutes of video were analyzed by a blinded observer off-line. […] The amount of time each animal spent in the immobile state was recorded and used for statistical analysis of compound effect. Group differences were evaluated by student's t-test or one-way ANOVA followed by post-hoc Dunnett's test. […]

[5] = test system: immobility in forced swim test; experiment: Forced Swim Test (FST) in rats; type: in vivo
Source text: as §2
Test compound E1-8.2 was administered as the free base. […]
Male Wistar rats weighing 197-251 g were used for the rat test. Rats were evaluated according to a two-session procedure with a swimming session of 15 minutes on the first day of the experiment (Session 1) followed 24 hours later by a 5-minute swimming test (Session 2). […] Rats were placed in the water 24 h later for 5 minutes (Session 2) and the duration of immobility was measured.
Animals were observed by a blinded observer. […] The amount of time each animal spent in the immobile state (and the latency to the first bout of immobility) was recorded and used for statistical analysis of compound effect. […]

Compound | partial effect on [3H] MK-801 binding [1] | CYP2D6 @ 10 μM (%) (CYP2D6) | further results
O=C(OCc1ccc(Cl)cc1)N1CC[C@H](CNc2nccn3cnnc23)C(F)(F)C1 [Compound E1-1.3, R-4-chlorobenzyl 4-(([1,2,4]triazolo[4,3-a]pyrazin-8-ylamino)methyl)-3,3-difluoropiperidine-1-carboxylate] | 41% | 37% | 
O=C(OCc1ccc(F)cc1)N1CC[C@H](CNc2nccn3cnnc23)C(F)(F)C1 [Compound E1-1.4, R-4-fluorobenzyl 4-(([1,2,4]triazolo[4,3-a]pyrazin-8-ylamino)methyl)-3,3-difluoropiperidine-1-carboxylate] | 32% | 19% | 
CCc1ccc(COC(=O)N2CC[C@H](CNc3nccn4cnnc34)C(F)(F)C2)cc1 [Compound E1-1.5, R-4-ethylbenzyl 4-(([1,2,4]triazolo[4,3-a]pyrazin-8-ylamino)methyl)-3,3-difluoropiperidine-1-carboxylate] | 48% |  | 
Cc1ccc(COC(=O)N2CC[C@H](CNc3cncc4nncn34)C(F)(F)C2)cc1 [Compound E1-2.2, R-4-methylbenzyl 4-(([1,2,4]triazolo[4,3-a]pyrazin-5-ylamino)methyl)-3,3-difluoropiperidine-1-carboxylate] |  | 18% | 
Cc1ccc(COC(=O)N2CC[C@H](CNc3ncc4cn[nH]c4n3)C(F)(F)C2)cc1 [Compound E1-8.2, (+)-R-4-methylbenzyl-4-((1H-pyrazolo[3,4-d]pyrimidin-6-ylamino)methyl)-3,3-difluoropiperidine-1-carboxylate] | 33% | 83% | IC50 (cloned human NR1/NR2A): > 10 µM; activity on electroconvulsive threshold ([2]; 0.5 and 2 mpk p.o., free base): modest proconvulsant activity; activity on electroconvulsive threshold ([2]; 10 and 20 mpk p.o., free base): anticonvulsant activity
Cc1ccc(COC(=O)N2CC[C@H](CNc3nc4ccccn4n3)C(F)(F)C2)cc1 [Compound E1-9.2, (+)-R-4-methylbenzyl 4-(([1,2,4]triazolo[1,5-α]pyridin-2-ylamino)methyl)-3,3-difluoropiperidine-1-carboxylate] | 34% | 14% | IC50 (cloned human NR1/NR2A): > 10 µM
Cc1ccc(COC(=O)N2CC[C@H](CNc3cnccn3)C(F)(F)C2)cc1 [Compound E1-21.2, R-4-methylbenzyl 3,3-difluoro-4-((pyrazin-2-ylamino)methyl)piperidine-1-carboxylate] | 49% | 97% | 
Cc1ccc(COC(=O)N2CC[C@H](CNc3cnc(C)cn3)C(F)(F)C2)cc1 [Compound E1-21.26, R-4-methylbenzyl 3,3-difluoro-4-((5-methylpyrazin-2-ylamino)-methyl)piperidine-1-carboxylate] | 41% | 32% | activity on electroconvulsive threshold ([2]; 3 and 10 mpk p.o., mesylate salt): anticonvulsant activity; latency to death, change vs vehicle controls [3]: +31%; number of deaths, change vs vehicle controls [3]: −82%
Cc1ccc(COC(=O)N2CC[C@@H](CNc3nccn4cnnc34)C(F)(F)C2)cc1 [Compound E2-1.2, (−)-S-4-methylbenzyl 4-(([1,2,4]triazolo[4,3-a]pyrazin-8-ylamino)methyl)-3,3-difluoropiperidine-1-carboxylate] | 36% |  | 
FC(F)(F)c1ccc(C(F)(F)CN2CCC(Nc3ncnc4[nH]ncc34)CC2)cc1 [LX-1, reference compound] |  | 93% | 
CN(C)CCCN1c2ccccc2CCc2ccccc21 [imipramine] |  |  | antidepressant activity (immobility time) ([4]; 32 mpk i.p. once 30 min before the test): expected antidepressant activity; antidepressant activity (immobility time) ([4]; 64 mpk p.o. once 60 min before the test): expected antidepressant activity; antidepressant activity (immobility time) ([4]; 128 mpk p.o. once 60 minutes before the test on Day 7): expected antidepressant activity; antidepressant activity (immobility time) ([5]; 32 mpk i.p. 3 times: 24 h, 4 h and 30 min before the test (Session 2)): expected antidepressant activity; antidepressant activity (immobility time) ([5]; 64 mpk p.o. 3 times: 24 h, 4 h and 60 min before the test (Session 2)): expected antidepressant activity
Cn1c(=O)c2[nH]cnc2n(C)c1=O [theophylline, reference compound] |  |  | activity on electroconvulsive threshold ([2]; 128 mpk p.o.): expected proconvulsant activity
